Entries after “also recorded” stand apart in the source; their conditions may differ. Where a SMILES comes first, the peptide text is derived from it.
What was measured:
[1] = target: T1, human leukocyte elastase (hLE) (Homo sapiens, UniProt P08246); assay: In vitro inhibition of hLE (cleavage of MeOSuc-AAPV-NA); format: biochemical
T1 construct: Neutrophils (1.4 billion) were isolated from whole blood obtained from a single healthy laboratory donor; from tissue; host or cells: neutrophils from whole blood of a single healthy donor
T1 sequence (P08246 30-247 limits assumed): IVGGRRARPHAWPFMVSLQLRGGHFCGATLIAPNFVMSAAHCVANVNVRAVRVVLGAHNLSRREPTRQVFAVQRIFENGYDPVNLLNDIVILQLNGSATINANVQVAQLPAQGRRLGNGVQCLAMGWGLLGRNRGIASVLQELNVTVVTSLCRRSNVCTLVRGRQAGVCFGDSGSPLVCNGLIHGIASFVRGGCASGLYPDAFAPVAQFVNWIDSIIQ
Protocol: (§1) The enzymatic activity was assayed with MeOSuc-AAPV-NA for hLE determination and Suc-AAPF-NA for hCG determination (both in 100 mM Hepes buffer, pH 7.4, containing 0.05% of the […] detergent Brij-35). The activities of the individual enzymatic fractions were 100% free from cross-contamination. […] The fractions containing hLE and hCG were dialyzed each against 0.1% pyridinium acetate, pH 5.3, divided into 20 aliquots, lyophilized, and stored at −20 ° C. until use.
(v) Inhibition experiments with hLE: Peptides were dissolved in 100 mM Hepes buffer pH 7.4 containing 0.1% Brij-35 with 10%. DMSO to yield 300 μM solutions, which were used to make further dilutions with the same buffer, and 80 μL aliquots were added in duplicates to 96-well plates. The substrate, 600 μM MeOSuc-AAPV-NA in the same buffer with 5% DMSO, was added to each well in addition to the blank wells, and the plate was placed in the plate reader equilibrated to 37 C (Dynateck MR-6000). Lyophilized aliquots of hLE were dissolved in 1600 μL of 100 mM Hepes buffer without DMSO, and 80 μL of the enzyme solution was added to the peptides and substrate to initiate the reaction. […] The final volume was 240 μL containing: 5% DMSO, 1-100 μM of peptide, 200 μM substrate, and 0.75 μg (˜25 picomol) enzyme.
(viii) Calculations: For hLE, V is determined by fitting a linear equation to the first 6 time-points (10 min) of the kinetics data using the least squares method. […] Several inhibitor concentration in duplicates and two control wells were used to fit a linear equation to graphs of Vo/Vi−1 vs. [I] for each inhibitor using the least squares method (8 data points for each inhibitor). From calculating the error in the slope of the equation, the relative error for Ki was deduced:
Ki={slope*(1+[S]/Km)}^−1because Ki=[I]*{(1+[S]/Km)*(Vo/Vi−1)}^−1.
The hLE inhibitory capability of CRP-derived peptides was evaluated by inhibiting the enzymatic cleavage of MeOSuc-AAPV-NA as described in Materials and Methods (section v).

[2] = target: T2, human leukocyte cathepsin G (hCG) (Homo sapiens, UniProt P08311); assay: In vitro inhibition of hCG (cleavage of Suc-AAPF-NA); format: biochemical
T2 construct: Neutrophils (1.4 billion) were isolated from whole blood obtained from a single healthy laboratory donor; from tissue; host or cells: neutrophils from whole blood of a single healthy donor
T2 sequence (P08311 21-243 limits assumed): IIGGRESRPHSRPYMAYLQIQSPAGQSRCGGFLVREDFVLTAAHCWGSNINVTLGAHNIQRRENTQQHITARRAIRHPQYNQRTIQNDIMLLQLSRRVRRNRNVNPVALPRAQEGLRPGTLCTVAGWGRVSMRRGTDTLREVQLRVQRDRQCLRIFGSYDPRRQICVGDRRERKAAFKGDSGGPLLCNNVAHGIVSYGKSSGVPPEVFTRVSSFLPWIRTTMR
Protocol: as §1
vi) Inhibition experiments with hCG: Similar conditions to hLE inhibition experiments were used except the substrate: 80 μL of 1.80 mM Suc-AAPF-NA. The enzyme was dissolved in 800 μL buffer, and the reaction was monitored every 6 min for 1 hour. The final volume was 240 μL containing: 5% DMSO, 1-100 μM peptide, 600 μM substrate, and 1.2 μg enzyme (about 40 picomol).
For hCG, V is determined by fitting a quadratic equation to the total kinetic data (60 min), using the least squares method and calculating V at t=0.
The hCG inhibitory capability of CRP-derived peptides was evaluated by inhibiting the enzymatic cleavage of Suc-AAPF-NA as described in Materials and Methods (section vi).

[3] = hCG Ki [μM], Table 2, substrate Suc-AAPF-NA 600 μM, pH 7.4
[4] = hLE Ki [μM], Table 1, substrate MeOSuc-AAPV-NA 200 μM, pH 7.4, 37 C
[5] = hCG Ki [μM], Table 1, substrate Suc-AAPF-NA 600 μM, pH 7.4
[6] = hLE Ki [μM], Table 2, substrate MeOSuc-AAPV-NA 200 μM, pH 7.4, 37 C

CC[C@H](C)[C@H](NC(=O)[C@H](CC(=O)O)NC(=O)[C@H](CCCCN)NC(=O)[C@H](CO)NC(=O)[C@H](Cc1c[nH]c2ccccc12)NC(=O)[C@H](Cc1ccccc1)NC(=O)[C@@H](NC(=O)[C@H](CC(C)C)NC(=O)[C@@H](NC(=O)[C@H](CCC(=O)O)NC(=O)[C@H](CC(N)=O)NC(=O)[C@H](CC(=O)O)NC(=O)[C@H](CCC(N)=O)NC(=O)[C@H](CCCNC(=N)N)NC(=O)[C@H](CCCCN)NC(=O)[C@@H](NC(=O)[C@H](C)N)[C@@H](C)O)[C@@H](C)CC)[C@@H](C)CC)C(=O)NCC(=O)N[C@@H](Cc1ccc(O)cc1)C(=O)N[C@@H](CO)C(=O)N[C@@H](Cc1ccccc1)C(=O)N[C@H](C(=O)N[C@H](C(=O)NCC(=O)NCC(=O)N[C@@H](CO)C(=O)N[C@@H](CCC(=O)O)C(=O)N[C@H](C(=O)N[C@@H](CC(C)C)C(=O)O)[C@@H](C)CC)C(C)C)[C@@H](C)O [Peptide 17] (H-ATKRQDNEILIFWSKDIGYSFTVGGSEIL-OH; N-terminus and C-terminus assumed)
hLE inhibitory activity (in words) [1]: reduced inhibitory activity; also recorded: reduction of inhibitory activity
hCG inhibitory activity (in words) [2]: reduction of inhibitory activity
Ki [2, 3]: 5.5 ± 1 µM

CC[C@H](C)[C@H](N)C(=O)N[C@@H](CC(C)C)C(=O)N[C@H](C(=O)N[C@@H](Cc1ccccc1)C(=O)N[C@@H](Cc1c[nH]c2ccccc12)C(=O)N[C@@H](CO)C(=O)N[C@@H](CCCCN)C(=O)N[C@@H](CC(=O)O)C(=O)N[C@H](C(=O)NCC(=O)N[C@@H](Cc1ccc(O)cc1)C(=O)N[C@@H](CO)C(=O)N[C@@H](Cc1ccccc1)C(=O)N[C@H](C(=O)O)[C@@H](C)O)[C@@H](C)CC)[C@@H](C)CC [Peptide 11, Ile-Leu-Ile-Phe-Trp-Ser-Lys-Asp-Ile-Gly-Tyr-Ser-Phe-Thr] (H-ILIFWSKDIGYSFT-OH; N-terminus and C-terminus assumed)
hLE inhibitory activity (in words) [1]: dramatic loss
fold decrease in hLE inhibitory activity compared to peptide 6 ([1]; relative to peptide 6): around 20 fold
hCG inhibitory activity (in words) [2]: dramatic loss

CC[C@H](C)[C@H](NC(=O)[C@H](CO)NC(=O)[C@H](Cc1ccc(O)cc1)NC(=O)CNC(=O)[C@@H](N)CCCNC(=N)N)C(=O)N[C@@H](Cc1ccccc1)C(=O)N[C@@H](CO)C(=O)N[C@@H](Cc1ccc(O)cc1)C(=O)N[C@@H](C)C(=O)N[C@H](C(=O)N[C@@H](CCCCN)C(=O)N[C@@H](CCCNC(=N)N)C(=O)N[C@@H](CCC(N)=O)C(=O)N[C@@H](CC(=O)O)C(=O)N[C@@H](CC(N)=O)C(=O)O)[C@@H](C)O [Peptide 3, Arg-Gly-Tyr-Ser-Ile-Phe-Ser-Tyr-Ala-Thr-Lys-Arg-Gln-Asp-Asn] (H-RGYSIFSYATKRQDN-OH)
Ki [1, 4]: > 200 µM
Ki [2, 5]: > 200 µM

CC[C@H](C)[C@H](NC(=O)[C@H](CC(=O)O)NC(=O)[C@H](CCCCN)NC(=O)[C@H](CO)NC(=O)[C@H](Cc1c[nH]c2ccccc12)NC(=O)[C@H](Cc1ccccc1)NC(=O)[C@@H](NC(=O)[C@H](CC(C)C)NC(=O)[C@@H](NC(=O)[C@H](CCC(=O)O)NC(=O)[C@H](CC(N)=O)NC(=O)[C@H](CC(=O)O)NC(=O)[C@H](CCC(N)=O)NC(=O)[C@H](CCCNC(=N)N)NC(=O)[C@@H](N)CCCCN)[C@@H](C)CC)[C@@H](C)CC)C(=O)O [Peptide 5, Lys-Arg-Gln-Asp-Asn-Glu-Ile-Leu-Ile-Phe-Trp-Ser-Lys-Asp-Ile] (H-KRQDNEILIFWSKDI-OH; N-terminus and C-terminus assumed)
hLE inhibitory activity (in words) [1]: two orders of magnitude less potent than peptide 6; also recorded: lowered the inhibitory capability by more than one order of magnitude
Ki ([1]; hLE inhibitory activity range): 50 to 100 µM
Ki ([2]; hCG inhibitory activity range): 150 to 200 µM

CC[C@H](C)[C@H](NC(=O)[C@H](CC(C)C)NC(=O)[C@@H](NC(=O)[C@@H](N)CCC(=O)O)[C@@H](C)CC)C(=O)N[C@@H](Cc1ccccc1)C(=O)N[C@@H](Cc1c[nH]c2ccccc12)C(=O)N[C@@H](CO)C(=O)N[C@@H](CCCCN)C(=O)O [Peptide 15, Glu-Ile-Leu-Ile-Phe-Trp-Ser-Lys] (H-EILIFWSK-OH)
hLE inhibitory activity (in words) [1]: total loss of inhibitory activity
Ki [1, 6]: > 200 µM
Ki [2, 3]: > 200 µM

CC[C@H](C)[C@H](N)C(=O)N[C@@H](CC(C)C)C(=O)N[C@@H](Cc1ccccc1)C(=O)N[C@@H](CCC(=O)O)C(=O)N[C@H](C(=O)N1CCC[C@H]1C(=O)N[C@@H](CCC(=O)O)C(=O)N[C@H](C(=O)N[C@H](C(=O)N[C@H](C(=O)N[C@@H](C)C(=O)N1CCC[C@H]1C(=O)N[C@H](C(=O)N[C@@H](Cc1c[nH]cn1)C(=O)N[C@H](C(=O)O)[C@@H](C)CC)C(C)C)C(C)C)[C@@H](C)O)C(C)C)C(C)C [Peptide 10, Ile-Leu-Phe-Glu-Val-Pro-Glu-Val-Thr-Val-Ala-Pro-Val-His-Ile] (H-ILFEVPEVTVAPVHI-OH; N-terminus and C-terminus assumed)
hLE inhibitory activity (in words) [1]: two orders of magnitude less potent than peptide 6
Ki ([1]; hLE inhibitory activity range): 50 to 100 µM
Ki ([2]; hCG inhibitory activity range): 150 to 200 µM

CC[C@H](C)[C@H](NC(=O)[C@H](CO)NC(=O)[C@H](Cc1ccc(O)cc1)NC(=O)CNC(=O)[C@H](CCCNC(=N)N)NC(=O)[C@@H](NC(=O)[C@H](CO)NC(=O)[C@H](CO)NC(=O)[C@H](CC(C)C)NC(=O)[C@@H](N)CCC(=O)O)[C@@H](C)O)C(=O)N[C@@H](Cc1ccccc1)C(=O)N[C@@H](CO)C(=O)N[C@@H](Cc1ccc(O)cc1)C(=O)N[C@@H](C)C(=O)N[C@H](C(=O)O)[C@@H](C)O [Peptide 2, Glu-Leu-Ser-Ser-Thr-Arg-Gly-Tyr-Ser-Ile-Phe-Ser-Tyr-Ala-Thr] (H-ELSSTRGYSIFSYAT-OH)
Ki [1, 4]: > 200 µM
Ki [2, 5]: > 200 µM

CC[C@H](C)[C@H](NC(=O)[C@H](CCC(=O)O)NC(=O)[C@H](CO)NC(=O)CNC(=O)CNC(=O)[C@@H](N)C(C)C)C(=O)N[C@@H](CC(C)C)C(=O)N[C@@H](Cc1ccccc1)C(=O)N[C@@H](CCC(=O)O)C(=O)N[C@H](C(=O)N1CCC[C@H]1C(=O)N[C@@H](CCC(=O)O)C(=O)N[C@H](C(=O)N[C@H](C(=O)N[C@H](C(=O)O)C(C)C)[C@@H](C)O)C(C)C)C(C)C [Peptide 9, Val-Gly-Gly-Ser-Glu-Ile-Leu-Phe-Glu-Val-Pro-Glu-Val-Thr-Val] (H-VGGSEILFEVPEVTV-OH)
Ki [1, 4]: > 200 µM
Ki [2, 5]: > 200 µM

CC[C@H](C)[C@H](N)C(=O)N[C@@H](Cc1ccccc1)C(=O)N[C@@H](Cc1c[nH]c2ccccc12)C(=O)N[C@@H](CO)C(=O)N[C@@H](CCCCN)C(=O)N[C@@H](CC(=O)O)C(=O)N[C@H](C(=O)NCC(=O)N[C@@H](Cc1ccc(O)cc1)C(=O)N[C@@H](CO)C(=O)N[C@@H](Cc1ccccc1)C(=O)N[C@H](C(=O)O)[C@@H](C)O)[C@@H](C)CC [Peptide 12, Ile-Phe-Trp-Ser-Lys-Asp-Ile-Gly-Tyr-Ser-Phe-Thr] (H-IFWSKDIGYSFT-OH)
hLE inhibitory activity (in words) [1]: totally abolished the inhibitory activity
Ki [1, 6]: > 200 µM
Ki [2, 3]: > 200 µM

Source: US6528618B1, “Anti-inflammatory peptides derived from C-reactive protein” (Yeda Research and Development Co. Ltd., priority 1997, dated 2003)
